Results as given in US20250296938A1, “Compounds that Interact with the Ras Superfamily for the Treatment of Cancers, Inflammatory Diseases, Rasopathies, and Fibrotic Disease” (SHY Therapeutics, LLC, priority 2018, published 2025).
Values belong to the molecule of their own block, whether it stands above or below them.

What was measured:
[1] = test system: GTP-bound RAS; assay: Cell-based Ras-GTP pulldown assay, MIA PaCa-2; settings: Homo sapiens; for inhibition at 10 µM: 6 hours, EGF stimulation
Description: (§1) Cell lines: Human NSCLC cells NCI-H1975, and tumor-derived pancreatic cancer cell lines Panc-1, and MIA-PaCa-2, were all purchased from American Type Culture Collection and grown in complete RPMI medium (NCI-H1975) or DMEM-High Glucose (Panc1 and MIA-PaCa-2), supplemented with penicillin (100 U/mL), streptomycin (100 μg/mL), and 10% heat-inactivated FBS at 37° C. in a humidified incubator with 5% CO2.
(§2) Method: Cells were plated at 2·10^6 cells/well density in a 6-well plate, allowed 3 hours to adhere to the plate, then starved in the appropriate medium in the presence of 0.5% FBS overnight. The small molecules to be tested were added to the cells in the final concentration of 10 μM in the presence of 0.3% DMSO for 6 hours incubation at 37° C. For IC50 value determination, serial dilutions of compounds were added to cells under the same conditions. Next, cells were stimulated with 5 ng/mL EGF for 5 minutes, rinsed with ice-cold PBS and then lysed with 500 μL of lysis/binding/wash buffer (25 mM Tris-HCl, pH 7.2, 150 mM NaCl, 5 mM MgCl2, 5% glycerol, 1% NP40) from Active Ras Detection kit (Cell signaling Technology, #8821) supplemented with Halt™ Protease & Phosphatase Inhibitor Cocktail (Thermo Scientific). To account for significant differences in cell number due to the treatment, a small sample of lysate was saved for protein quantification and the rest of the lysate was snap frozen. Protein concentration was assessed by BCA protein assay (Thermo Scientific). To ensure that equal amount of protein undergoes RBD pulldown, lysates were subsequently thawed (at RT) and adjusted to 1 mg/mL with lysis/binding/wash buffer (0.5 mL volume). Equal amounts of lysate were then added to 0.5 mL lysis buffer containing RAF-RBD (1 mL total volume). Lysates were vortexed, incubated for 10 min on ice and subsequently pre-cleared at 14,000 rpm for 5 min at 4° C. 90% of the pre-cleared lysates were subsequently added to pre-washed glutathione agarose beads from Active Ras Detection kit (Cell signaling Technology, #8821) for 1 hour at 4 °C under constant rocking. The beads were subsequently pelleted, washed 3 times with lysis/binding/wash buffer, and eluted for western blotting with 50 μL of 1×SDS-PAGE sample buffer. Level of GTP-bound RAS was determined by western blot.
Western blot protocol: Equal volumes of eluate (25 μL) were separated by 16% SDS-PAGE and transferred to nitrocellulose membranes (Invitrogen by Thermo Fisher Scientific). The membrane was stained with Ponceau S Stain (Boston BioProducts) to verify uniform protein loading. Membranes were blocked with 5% BSA in TBST and then incubated overnight at 4° C. with anti-RAS mouse monoclonal antibody from the Active Ras Detection kit (Cell signaling Technology, #8821), followed by HRP-conjugated secondary antibody (Jackson Immunoresearch, West Grove, PA). Membranes were incubated in Amersham ECL Prime Western Blotting Detection Reagent (GE Healthcare) and bands were visualized using the ChemiDoc MP imaging system (Bio-Rad).

[2] = test system: GTP-bound RAS; assay: Cell-based Ras-GTP pulldown assay, NCI H1975; settings: Homo sapiens; for inhibition at 10 µM: 6 hours, EGF stimulation
Description: as §1, §2
(§3) Western blot protocol: Equal volumes of eluate (25 μL) were separated by 16% SDS-PAGE and transferred to nitrocellulose membranes (Invitrogen by Thermo Fisher Scientific). The membrane was stained with Ponceau S Stain (Boston BioProducts) to verify uniform protein loading. […]

[3] = test system: GTP-bound RAS; assay: Cell-based Ras-GTP pulldown assay, PANC-1; settings: Homo sapiens; for inhibition at 10 µM: 6 hours, EGF stimulation
Description: as §1, §2, §3

[4] = molecular target: GTP binding domain of Ras; settings: literature (Feuerstein 1987; John 1990); cited from earlier work
[5] = molecular target: T1, Rac-1 (Homo sapiens, UniProt P63000); assay: MicroScale Thermophoresis (MST), GTP affinity; format: binding
[6] = molecular target: K-Ras GTP binding domain; assay: SPA and MST studies, GTP affinity across wild type and mutant K-Ras
Excerpt: (§4) This therefore led to the novel, unanticipated conclusion that compounds such as small molecules could be discovered that would bind to a Ras GTP binding domain and compete with the binding of GTP to Ras.
(§5) See Khawaja et al., “Scintillation proximity assay in lead discovery”, Expert Opin. Drug Discov., 2008 November; 3 (11): 1267-80 regarding SPA procedures. See the following references regarding MST technology: Wienken et al., Nature Communications (2010), Protein binding assays in biological liquids using MicroScale Thermophoresis; Jerabek-Willemsen et al., ASSAY and Drug Development Technologies (2011), Molecular interaction studies using MicroScale Thermophoresis; Lin et al., Cell (2012), Inhibition of basal FGF receptor signaling by dimeric Grb2; Seidel et al., Angewandte Chemie (2012), Label-Free MicroScale Thermophoresis discriminates sites and affinity of protein-ligand binding; Seidel et al., Methods (2012), MicroScale Thermophoresis quantifies biomolecular interactions under previously challenging conditions; Parker & Newstead, Nature (2014), Molecular basis of nitrate uptake by the plant nitrate transporter NRT1.1; and Jerabek-Willemsen et al., Journal of Molecular Structure (2014), MicroScale Thermophoresis: Interaction analysis and beyond.

[7] = molecular target: T2, Rho-A (Homo sapiens, UniProt P61586); assay: MicroScale Thermophoresis (MST), GTP affinity; format: binding
Excerpt: (§6) As disclosed in International Application No. PCT/US2018/038613 and U.S. patent application Ser. No. 16/013,872, the affinity of GTP for the GTP binding domain of K-Ras utilizing a Scintillation Proximity Assay (SPA) and MicroScale Thermophoresis (MST) has been measured. These methods were not available when Wittinghofer and colleagues undertook their studies.
as §4, §5

[8] = molecular target: T3, K-Ras (Q61H) (Homo sapiens, UniProt P01116, Q61H); assay: MicroScale Thermophoresis (MST), GTP affinity; format: binding
Excerpt: as §6, §4, §5

[9] = molecular target: T4, K-Ras (wild type) (Homo sapiens, UniProt P01116); assay: MicroScale Thermophoresis (MST), GTP affinity; format: binding
Excerpt: as §6, §4, §5

[10] = molecular target: T5, K-Ras (G12D) (Homo sapiens, UniProt P01116, G12D); assay: MicroScale Thermophoresis (MST), GTP affinity; format: binding
Excerpt: as §6, §4, §5

[11] = molecular target: T6, K-Ras (G12C) (Homo sapiens, UniProt P01116, G12C); assay: MicroScale Thermophoresis (MST), GTP affinity; format: binding
Excerpt: as §6, §4, §5

[12] = molecular target: T2, Rho-A; assay: Scintillation Proximity Assay (SPA), GTP affinity; format: binding
[13] = molecular target: T1, Rac-1; assay: Scintillation Proximity Assay (SPA), GTP affinity; format: binding
[14] = molecular target: T3, K-Ras (Q61H); assay: Scintillation Proximity Assay (SPA), GTP affinity; format: binding
Excerpt: as §6, §4, §5

[15] = molecular target: T4, K-Ras (wild type); assay: Scintillation Proximity Assay (SPA), GTP affinity; format: binding
Excerpt: as §6, §4, §5

[16] = molecular target: T5, K-Ras (G12D); assay: Scintillation Proximity Assay (SPA), GTP affinity; format: binding
Excerpt: as §6, §4, §5

[17] = molecular target: T6, K-Ras (G12C); assay: Scintillation Proximity Assay (SPA), GTP affinity; format: binding
Excerpt: as §6, §4, §5

[18] = molecular target: Rac-1 and Rho-A; assay: SPA and MST studies, GTP affinity for Rho subfamily members; settings: read-out: affinity of GTP for the binding domain of Rho subfamily members
Excerpt: as §4, §5

[19] = test system: MEK phosphorylation; assay: Western MEK cell-based phosphorylation assay, PANC-1; settings: Homo sapiens
Description: as §1, with “NCI-H1975” for “NCI-H1975,”, “Panc-1” for “Panc-1,”, “MIA-PaCa-2” for “MIA-PaCa-2,”
Method: Cells were plated at 350000 cells/well density in a 12-well plate, allowed 3 hours to adhere to the plate, then starved in the appropriate medium in the presence of 0.5% FBS overnight. The small molecules to be tested were added to the cells in the final concentration of 10 μM in the presence of 0.3% DMSO for 6 hours incubation at 37° C. For IC50 value determination, serial dilutions of compounds were added to cells under the same conditions. Next, cells were stimulated with 1.5 ng/ml EGF for 15 minutes then cells were lysed with lysis buffer containing 1% Triton X-100, EDTA, and Halt™ Protease & Phosphatase Inhibitor Cocktail (Thermo Scientific). Protein concentration was assessed by BCA protein assay (Thermo Scientific). Phosphorylation level of MEK was determined by western blot.
Western blot protocol: Equal amounts of protein (15-50 μg) were separated by SDS-PAGE and transferred to nitrocellulose membranes (Invitrogen by Thermo Fisher Scientific). The membrane was stained with Ponceau S Stain (Boston BioProducts) to verify uniform protein loading. Membranes were blocked with 10% milk and phosphorylation levels of MEK were assessed by incubating overnight at 4° C. with anti-phospho-MEK 1/2 (Ser217/Ser221) antibody (Cell Signaling) followed by HRP-conjugated secondary antibody (Jackson Immunoresearch, West Grove, PA). Bands were incubated in Amersham ECL Prime Western Blotting Detection Reagent (GE Healthcare) and visualized using the ChemiDoc MP imaging system (Bio-Rad).

[20] = test system: MEK phosphorylation; assay: Western MEK cell-based phosphorylation assay, NCI H1975; settings: Homo sapiens
Description: as §1, with “NCI-H1975” for “NCI-H1975,”, “Panc-1” for “Panc-1,”, “MIA-PaCa-2” for “MIA-PaCa-2,”
(§7) Method: Cells were plated at 350000 cells/well density in a 12-well plate, allowed 3 hours to adhere to the plate, then starved in the appropriate medium in the presence of 0.5% FBS overnight. The small molecules to be tested were added to the cells in the final concentration of 10 μM in the presence of 0.3% DMSO for 6 hours incubation at 37° C. […] Protein concentration was assessed by BCA protein assay (Thermo Scientific). Phosphorylation level of MEK was determined by western blot.
(§8) Western blot protocol: Equal amounts of protein (15-50 μg) were separated by SDS-PAGE and transferred to nitrocellulose membranes (Invitrogen by Thermo Fisher Scientific). […] Membranes were blocked with 10% milk and phosphorylation levels of MEK were assessed by incubating overnight at 4° C. with anti-phospho-MEK 1/2 (Ser217/Ser221) antibody (Cell Signaling) followed by HRP-conjugated secondary antibody (Jackson Immunoresearch, West Grove, PA). […]

[21] = test system: MEK phosphorylation; assay: Western MEK cell-based phosphorylation assay, MIA PaCa-2; settings: Homo sapiens
Description: as §1, with “NCI-H1975” for “NCI-H1975,”, “Panc-1” for “Panc-1,”, “MIA-PaCa-2” for “MIA-PaCa-2,”
as §7, §8

T6 sequence (P01116 1-188 isoform P01116-2 G12C): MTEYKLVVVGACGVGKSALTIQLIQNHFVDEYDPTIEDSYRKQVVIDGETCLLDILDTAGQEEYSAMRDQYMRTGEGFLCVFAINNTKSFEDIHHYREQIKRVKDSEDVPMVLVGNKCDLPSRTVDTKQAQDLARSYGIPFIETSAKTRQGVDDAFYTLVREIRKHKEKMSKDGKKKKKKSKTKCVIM
T3 sequence (P01116 1-188 isoform P01116-2 Q61H): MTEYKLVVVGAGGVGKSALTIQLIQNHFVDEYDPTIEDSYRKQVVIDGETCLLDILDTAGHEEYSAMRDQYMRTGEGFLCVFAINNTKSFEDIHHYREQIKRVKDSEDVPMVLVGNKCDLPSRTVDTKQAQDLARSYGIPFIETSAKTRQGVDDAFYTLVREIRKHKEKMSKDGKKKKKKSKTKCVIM
T4 sequence (P01116 1-188 isoform P01116-2): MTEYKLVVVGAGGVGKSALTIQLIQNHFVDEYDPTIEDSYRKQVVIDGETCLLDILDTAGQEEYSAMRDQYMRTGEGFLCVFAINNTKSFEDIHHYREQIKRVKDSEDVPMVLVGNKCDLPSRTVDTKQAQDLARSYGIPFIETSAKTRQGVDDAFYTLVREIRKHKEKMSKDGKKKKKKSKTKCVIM
T5 sequence (P01116 1-188 isoform P01116-2 G12D): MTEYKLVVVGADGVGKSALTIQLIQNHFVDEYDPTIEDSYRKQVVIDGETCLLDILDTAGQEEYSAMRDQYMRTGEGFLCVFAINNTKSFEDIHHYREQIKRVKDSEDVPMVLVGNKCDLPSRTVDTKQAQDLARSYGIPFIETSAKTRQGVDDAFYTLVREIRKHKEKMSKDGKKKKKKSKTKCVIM
T2 sequence (P61586 whole entry, the tested form may be a part): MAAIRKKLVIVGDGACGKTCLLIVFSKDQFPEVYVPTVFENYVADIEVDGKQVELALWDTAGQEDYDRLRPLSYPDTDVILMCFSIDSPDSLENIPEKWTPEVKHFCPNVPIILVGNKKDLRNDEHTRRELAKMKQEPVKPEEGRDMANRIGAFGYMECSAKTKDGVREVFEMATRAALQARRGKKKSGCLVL

IC50 [1]: > 1000 nM | IC50 [3]: 750 to 1000 nM
Compound: CO[C@H]1CCC(Nc2nc(-c3nccn3C)nc3sc(-c4ccn(C)n4)c(-c4ccccc4)c23)C1 (stereo partly drawn) [drawing 1080]
IC50 [2]: > 1000 nM

Compound: Nc1nc2c(ncn2[C@@H]2O[C@H](COP(=O)(O)OP(=O)(O)O)[C@@H](O)[C@H]2O)c(=O)[nH]1 [GDP]
affinity for the GTP binding domain of Ras [4]: single to double digit picomolar

Kd [5]: 166 ± 10 nM | Kd [6]: 100 to 465 nM | Kd [7]: 130 ± 5 nM | Kd [8]: 157 ± 21 nM | Kd [9]: 463 ± 2 nM | Kd [10]: 244 ± 12 nM | Kd [11]: 207 ± 46 nM | Kd [12]: 129 ± 12 nM | Kd [13]: 151 ± 14 nM | Kd [14]: 118 ± 11 nM | Kd [15]: 243 ± 15 nM | Kd [16]: 270 ± 15 nM | Kd [17]: 258 ± 18 nM | Kd [18]: 120 to 170 nM
Compound: Nc1nc2c(ncn2[C@@H]2O[C@H](COP(=O)(O)OP(=O)(O)OP(=O)(O)O)[C@@H](O)[C@H]2O)c(=O)[nH]1 [GTP]
affinity for the GTP binding domain of Ras [4]: single to double digit picomolar

IC50 [19]: > 1000 nM
Compound: COc1cccc(-c2sc3nc(-c4nccn4C)nc(N4CCC(OC)C4)c3c2-c2ccccc2)c1F (stereo not drawn) [drawing 477]

IC50 [1]: 750 to 1000 nM | IC50 [3]: 750 to 1000 nM
Compound: COCCNc1nc(-c2nccn2C)nc2sc(-c3cccc(OC)c3Cl)c(-c3ccccc3)c12 [drawing 1079]
IC50 [2]: > 1000 nM

IC50 [21]: > 1000 nM | IC50 [19]: 750 to 1000 nM
Compound: CO[C@H]1CCC(Nc2nc(-c3nccn3C)nc3sc(-c4ccn(C)n4)c(-c4ccccc4)c23)C1 (stereo partly drawn) [drawing 478]
IC50 [20]: > 1000 nM

Compound: CO[C@H]1CC[C@@H](Nc2nc(-c3nccn3C)nc3sc(-c4ccn(C(C)C)n4)c(C4=CC=CCC=C4)c23)C1 [drawing 1078]
inhibition at 10 µM [1]: 76 to 100%

IC50 [21]: 750 to 1000 nM | IC50 [19]: 750 to 1000 nM
Compound: COCCNc1nc(-c2nccn2C)nc2sc(-c3cccc(OC)c3Cl)c(-c3ccccc3)c12 [drawing 476]
IC50 [20]: > 1000 nM

Compound: CO[C@H]1CCC(Nc2nc(-c3nccn3C)nc3sc(-c4ccn(C)n4)c(-c4ccccc4)c23)C1 (stereo partly drawn) [drawing 1077]
inhibition at 10 µM [1]: 76 to 100% | inhibition at 10 µM [2]: 76 to 100% | inhibition at 10 µM [3]: 76 to 100%

Compound: COCCNc1nc(-c2nccn2C)nc2sc(-c3cccc(OC)c3Cl)c(-c3ccccc3)c12 [drawing 1076]
inhibition at 10 µM [1]: 76 to 100% | inhibition at 10 µM [2]: 76 to 100% | inhibition at 10 µM [3]: 76 to 100%
